# Measurements reported in the supplement of paper PMC10883282.
# ± gives the standard deviation of the averaged measurements.
# Tests used:
# Assay in all cases: relative viability vs DMSO control (72 h) (fraction); higher = more viable cells
# VA-ES-BJ = tested on: VA-ES-BJ
# Summary of the method: (§1)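 Sarcoma cell lines went into 384-well plates at densities chosen to reach 80–90% confluence. After 24 h, each well received 2.5 µl of serially diluted compound, with source plates running from 10 mM to 0.0002 mM, and the plates were kept 72 h at 37 °C, 5% CO2, alongside 0.1% DMSO vehicle and a 5 µM positive control. Relative viability was derived from ATPLite readings as percent growth and averaged over up to triplicate wells. The data were then rescaled so that 1 stands for full and 0 for none.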
# SK-LMS-1 = tested on: SK-LMS-1
# Summary of the method: as §1
# RD-ES = tested on: RD-ES
# Summary of the method: as §1
# SW982 = tested on: SW982
# Summary of the method: as §1
# SW872 = tested on: SW872
# Summary of the method: as §1
# HT1080 = tested on: HT1080
# Summary of the method: as §1
smiles,measurement,setting,value
N#CCC1(n2cc(-c3ncnc4[nH]ccc34)cn2)CN(C2CCN(C(=O)c3ccnc(C(F)(F)F)c3F)CC2)C1 [Itacitinib],relative viability,VA-ES-BJ; 0.00017 µM,1.05 ± 0.066
same,relative viability,VA-ES-BJ; 0.00051 µM,1.03 ± 0.019
same,relative viability,VA-ES-BJ; 0.00152 µM,1.02 ± 0.032
same,relative viability,VA-ES-BJ; 0.00457 µM,1.02 ± 0.025
same,relative viability,VA-ES-BJ; 0.01372 µM,1.01 ± 0.032
same,relative viability,VA-ES-BJ; 0.04115 µM,1 ± 0.027
same,relative viability,VA-ES-BJ; 0.1235 µM,0.982 ± 0.026
same,relative viability,VA-ES-BJ; 0.3704 µM,0.97 ± 0.056
same,relative viability,VA-ES-BJ; 1.111 µM,0.972 ± 0.03
same,relative viability,VA-ES-BJ; 3.333 µM,0.942 ± 0.028
same,relative viability,VA-ES-BJ; 10 µM,0.859 ± 0.032
same,relative viability,SK-LMS-1; 0.00017 µM,1.03 ± 0.037
same,relative viability,SK-LMS-1; 0.00051 µM,1.02 ± 0.071
same,relative viability,SK-LMS-1; 0.00152 µM,0.994 ± 0.042
same,relative viability,SK-LMS-1; 0.00457 µM,0.976 ± 0.048
same,relative viability,SK-LMS-1; 0.01372 µM,0.987 ± 0.06
same,relative viability,SK-LMS-1; 0.04115 µM,0.997 ± 0.032
same,relative viability,SK-LMS-1; 0.1235 µM,0.958 ± 0.033
same,relative viability,SK-LMS-1; 0.3704 µM,0.954 ± 0.013
same,relative viability,SK-LMS-1; 1.111 µM,0.969 ± 0.048
same,relative viability,SK-LMS-1; 3.333 µM,0.913 ± 0.017
same,relative viability,SK-LMS-1; 10 µM,0.883 ± 0.047
same,relative viability,RD-ES; 0.00017 µM,0.92 ± 0.02
same,relative viability,RD-ES; 0.00051 µM,0.949 ± 0.021
same,relative viability,RD-ES; 0.00152 µM,0.919 ± 0.079
same,relative viability,RD-ES; 0.00457 µM,0.956 ± 0.048
same,relative viability,RD-ES; 0.01372 µM,0.927 ± 0.058
same,relative viability,RD-ES; 0.04115 µM,0.913 ± 0.019
same,relative viability,RD-ES; 0.1235 µM,0.909 ± 0.024
same,relative viability,RD-ES; 0.3704 µM,0.909 ± 0.025
same,relative viability,RD-ES; 1.111 µM,0.924 ± 0.0094
same,relative viability,RD-ES; 3.333 µM,0.887 ± 0.021
same,relative viability,RD-ES; 10 µM,0.853 ± 0.014
same,relative viability,SW982; 0.00017 µM,0.979 ± 0.048
same,relative viability,SW982; 0.00051 µM,0.996 ± 0.037
same,relative viability,SW982; 0.00152 µM,1.01 ± 0.02
same,relative viability,SW982; 0.00457 µM,1 ± 0.051
same,relative viability,SW982; 0.01372 µM,1.02 ± 0.012
same,relative viability,SW982; 0.04115 µM,0.974 ± 0.0069
same,relative viability,SW982; 0.1235 µM,0.976 ± 0.025
same,relative viability,SW982; 0.3704 µM,0.956 ± 0.034
same,relative viability,SW982; 1.111 µM,0.983 ± 0.028
same,relative viability,SW982; 3.333 µM,0.93 ± 0.056
same,relative viability,SW982; 10 µM,0.928 ± 0.06
same,relative viability,SW872; 0.00017 µM,1.012 ± 0.0074
same,relative viability,SW872; 0.00051 µM,1.03 ± 0.017
same,relative viability,SW872; 0.00152 µM,0.975 ± 0.057
same,relative viability,SW872; 0.00457 µM,0.972 ± 0.043
same,relative viability,SW872; 0.01372 µM,0.971 ± 0.073
same,relative viability,SW872; 0.04115 µM,0.94 ± 0.041
same,relative viability,SW872; 0.1235 µM,0.891 ± 0.015
same,relative viability,SW872; 0.3704 µM,0.911 ± 0.041
same,relative viability,SW872; 1.111 µM,0.901 ± 0.015
same,relative viability,SW872; 3.333 µM,0.902 ± 0.07
same,relative viability,SW872; 10 µM,0.859 ± 0.019
same,relative viability,HT1080; 0.00017 µM,1.04 ± 0.042
same,relative viability,HT1080; 0.00051 µM,1.02 ± 0.045
same,relative viability,HT1080; 0.00152 µM,1.04 ± 0.042
same,relative viability,HT1080; 0.00457 µM,1.01 ± 0.017
same,relative viability,HT1080; 0.01372 µM,1.03 ± 0.042
same,relative viability,HT1080; 0.04115 µM,0.991 ± 0.022
same,relative viability,HT1080; 0.1235 µM,1.03 ± 0.037
same,relative viability,HT1080; 0.3704 µM,1.004 ± 0.01
same,relative viability,HT1080; 1.111 µM,0.993 ± 0.048
same,relative viability,HT1080; 3.333 µM,1.02 ± 0.045
same,relative viability,HT1080; 10 µM,1 ± 0.016
